Measured values reported in patent US7026292B1, “Compositions and therapeutic methods using morphogenic proteins and stimulatory factors” (Stryker Corporation, priority 1995, dated 2006).

Tested on: FRC (fetal rat calvarial) cells
Test: Alkaline phosphatase (AP) activity assay in FRC cells
Type: cell-based
Settings: for MPSF function in concert with OP-1 (figure title): OP-1 200 ng/ml (FIGS. 5–10); for Stimulation of OP-1 osteogenic induction (figure title): OP-1 500 ng/ml (FIG. 1, FIG. 11)
Procedure: A preferred assay for testing potential MPSFs with OP-1 for osteogenic activity is the alkaline phosphatase (AP) enzymatic assay. AP is an osteoblast differentiation marker in primary osteoblastic FRC. (fetal rat calvarial) cells. The OP-1-stimulated AP activity is the result of increased steady-state AP mRNA levels as measured by Northern analysis. The procedure is generally as follows.
Primary osteoblast cell cultures were prepared from fetal rat calvaria using published procedures (M. A. Aronow et al., J. Cell Physiol., 143, pp. 213–221 (1990); T. K. McCarthy et al., J. Bone Miner. Res., 3, pp. 401–8 (1988)). Briefly, cells were harvested by sequential collagenase digestions of the calvarium and cells from digestions III to V were pooled. Fetal rat calvaria (FRC) cells were plated in complete medium (MEM, alpha; GIBCO/BRL, Grand Island, N.Y.) containing 10% fetal bovine serum, vitamin C (100 μg/ml), and antibiotics (100 U/ml penicillin, and […]). Cultures were incubated at 37° C. with 95% air/5% CO2 for several days to reach confluence. Cells were then subcultured for experimentations.
FRC cells were subcultured in 48-well plates (COSTAR, Cambridge, Mass.) in complete MEM medium with 10% fetal bovine serum until confluent in about 4 days. Confluent cells were rinsed with Hank's balanced salt solution (HBSS) and treated with serum-free α-MEM medium (with 0.1% BSA, 100 U/ml penicillin, and […]) containing the appropriate solvent vehicle (50% acetonitrile/0.1% trifluoroacetic acid for OP-1 treatment or 0.1N acetic acid for IGFI treatment) or recombinant human OP-1, or IGFI at the concentrations indicated. Solvent vehicle concentration in the culture medium never exceeded 0.1%. At the end of treatment, cells were lysed and total cellular alkaline phosphatase activity was measured (typically after 48 hours of treatment).
Total cellular alkaline phosphatase activity was determined using a commercial assay kit (Sigma, St. Louis, Mo.). Cell lysates were prepared by aspirating the medium from the 48-well plate, rinsing the cells with ice-cold PBS, and lysing the cells with 0.05% Triton X-100 and sonication for 60 sec. Alkaline phosphatase activity in the lysates was measured in 2-amino-2-methyl-1-propanol buffer (pH 10.3) with p-nitrophenyl phosphate as substrate at 37° C. Reactions were performed in 96-well plates for 1–2 h. Following color development, reactions were terminated with 0.5N NaOH. Absorbance of the reaction was measured at 405 nm using a Hewlett Packard Genenchem automatic plate reader. Total protein level in the lysates was measured according to Bradford (M. Bradford, Anal. Biochem., 72, pp. 248–54 (1976)) using bovine serum albumin as a standard. Alkaline phosphatase activity was expressed as nmol p-nitrophenol liberated per microgram of total cellular protein. […]
At least four experimental groups were tested: control cells treated with no OP-1 or MPSF; group I cells treated with increasing concentrations of MPSF alone; […]; and group III cells, […] concentrations of the MPSF.

[1] = 0.5 nM HC + 200 ng/ml OP-1, 48 hours (FIG. 7)
[2] = PG 5 nM + 200 ng/ml OP-1, 48 hours (FIG. 10)
[3] = IGF-I + OP-1 500 ng/ml (FIG. 1)
[4] = 0.05 nM or 0.5 nM insulin + 200 ng/ml OP-1, 48 hours (FIG. 8)

Compound: C[C@]12CCC(=O)C=C1CC[C@@H]1[C@@H]2[C@@H](O)C[C@@]2(C)[C@H]1CC[C@]2(O)C(=O)CO [HC, hydrocortisone, reference compound]
- Level of AP activity relative to cells treated with OP-1 alone [1]: about two-fold
- Level of AP activity relative to control cells [1]: about three-fold
- MPSF function in concert with OP-1 (figure title) (AP activity in FRC cells): is a MPSF in concert with OP-1
- Stimulation of AP activity by HC alone (HC 0.05–5 nM alone, 48 hours (FIG. 7)): did not stimulate AP activity

Compound: TGF-β
- Stimulation of OP-1-induced osteogenic induction (figure title) (AP activity in FRC cells, OP-1 100, 200 or 500 ng/ml (FIG. 12)): does not stimulate OP-1-induced osteogenic induction
- Synergistic effect of TGF-β with OP-1 on AP activity (TGF-β 0.05–3.0 ng/ml with OP-1 (FIG. 12)): did not exhibit any synergistic effect
- Stimulation of AP activity by TGF-β alone (TGF-β alone, no OP-1 (FIG. 12)): did not stimulate AP activity

Compound: CC(=O)[C@H]1CC[C@H]2[C@@H]3CCC4=CC(=O)CC[C@]4(C)[C@H]3CC[C@]12C [PG, progesterone, reference compound]
- MPSF function in concert with OP-1 (figure title) (AP activity in FRC cells): is a MPSF in concert with OP-1
- Level of AP activity relative to cells treated with OP-1 alone [2]: about two-fold
- Level of AP activity relative to control cells [2]: about four-fold
- Stimulation of AP activity beyond control cells (PG alone 5 nM, 48 hours (FIG. 10)): about three-fold

Compound: IGF-I: insulin-like growth factor I, tested as morphogenic protein stimulatory factor (MPSF)
- Stimulation of OP-1 osteogenic induction (figure title) (AP activity in FRC cells): stimulates OP-1 osteogenic induction
- Potentiation of OP-1-stimulated AP activity by IGF-I (IGF-I 10 ng/ml, OP-1 100 ng/ml (FIG. 3)): 1.5–2 fold
- Synergistic effect on AP level, timing of IGF-I addition (IGF-I 25 ng/ml added 6 h or later after OP-1 500 ng/ml, 48 h (FIG. 4)): reduced significantly
- Maximum enhancement of OP-1-stimulated AP activity by IGF-I (IGF-I 25 ng/ml, OP-1 200 ng/ml (FIG. 3)): about 2.5 fold
- Stimulation of AP activity by IGF-I in the absence of OP-1 (IGF-I 1–100 ng/ml, no OP-1 (FIG. 3)): did not stimulate AP activity
- Enhancement of OP-1-stimulated AP activity by IGF-I [3]: 3–4 fold
- Kind of stimulatory effect of IGF-I on OP-1-stimulated AP activity [3]: synergistic
- Potentiation of OP-1-stimulated AP activity at higher IGF-I concentrations (IGF-I above 25 ng/ml (up to 100 ng/ml) with OP-1 (FIG. 3)): no longer potentiates
- Synergistic effect on AP level, timing of IGF-I addition (OP-1 500 ng/ml and IGF-I 25 ng/ml added simultaneously, 48 h (FIG. 4)): maximum synergistic effect
- Stimulation of AP activity by IGF-I alone (exogenous IGF-I alone up to 300 ng/ml, no OP-1 (FIG. 1)): did not stimulate AP activity
- Synergistic effect on AP level, timing of IGF-I addition (pre-incubation with IGF-I 25 ng/ml for 24 h followed by OP-1 500 ng/ml): abolishes the synergistic effect

Compound: insulin: insulin, purchased from Sigma
- Level of AP activity relative to cells treated with OP-1 alone [4]: about two-fold
- Level of AP activity relative to control cells [4]: about four-fold
- MPSF function in concert with OP-1 (figure title) (AP activity in FRC cells): is a MPSF in concert with OP-1
- Stimulation of AP activity by insulin alone (insulin 0.05–5 nM alone, 48 hours (FIG. 8)): did not stimulate AP activity

Compound: hGH: growth hormone (hGH), purchased from Sigma
- MPSF function in concert with OP-1 (figure title) (AP activity in FRC cells): is a MPSF in concert with OP-1
- Induction of AP activity over OP-1 alone (all hGH concentrations tested (10–1000 ng/ml) + 200 ng/ml OP-1, 48 hours (FIG. 6)): stimulated the induction of AP activity
- Concentration dependence of hGH stimulation of AP activity (higher versus lower hGH concentrations + 200 ng/ml OP-1, 48 hours (FIG. 6)): more of a stimulatory effect

Compound: IGF-II: member of the IGF growth factor family
- Stimulation of OP-1 osteogenic induction (figure title) (AP activity in FRC cells): does not stimulate OP-1-induced osteogenic induction
- Effect of IGF-II on OP-1-stimulated increase in AP activity (IGF-II 10–300 ng/ml + OP-1 500 ng/ml (FIG. 11)): neither enhanced nor inhibited
- Effect of IGF-II on the synergistic effect of IGF-I on OP-1 (IGF-II (925 ng/ml as printed) + IGF-I 25 ng/ml + OP-1 500 ng/ml): does not further potentiate
